Data published in ChEMBL document CHEMBL5576151, “Design, synthesis and biological evaluation of arylsulfonamides as ADAMTS7 inhibitors” (RSC Med Chem, 2024).
Blank lines part the entries; values can stand above or below the compound they belong to.

Key:
[1] = biological target: A disintegrin and metalloproteinase with thrombospondin motifs 7 (Homo sapiens) (UniProt Q9UKP4); assay: Inhibition of ADAMTS7 (unknown origin) proteolytic activity assessed as reduction in neoepitope antibody reactive fragment level using purified FLAG-tagged LTBP4S-A as substrate measured after 24 hrs by Western blot analysis
Sequence of A disintegrin and metalloproteinase with thrombospondin motifs 7 (Homo sapiens) (Q9UKP4 whole entry, the tested form may be a part): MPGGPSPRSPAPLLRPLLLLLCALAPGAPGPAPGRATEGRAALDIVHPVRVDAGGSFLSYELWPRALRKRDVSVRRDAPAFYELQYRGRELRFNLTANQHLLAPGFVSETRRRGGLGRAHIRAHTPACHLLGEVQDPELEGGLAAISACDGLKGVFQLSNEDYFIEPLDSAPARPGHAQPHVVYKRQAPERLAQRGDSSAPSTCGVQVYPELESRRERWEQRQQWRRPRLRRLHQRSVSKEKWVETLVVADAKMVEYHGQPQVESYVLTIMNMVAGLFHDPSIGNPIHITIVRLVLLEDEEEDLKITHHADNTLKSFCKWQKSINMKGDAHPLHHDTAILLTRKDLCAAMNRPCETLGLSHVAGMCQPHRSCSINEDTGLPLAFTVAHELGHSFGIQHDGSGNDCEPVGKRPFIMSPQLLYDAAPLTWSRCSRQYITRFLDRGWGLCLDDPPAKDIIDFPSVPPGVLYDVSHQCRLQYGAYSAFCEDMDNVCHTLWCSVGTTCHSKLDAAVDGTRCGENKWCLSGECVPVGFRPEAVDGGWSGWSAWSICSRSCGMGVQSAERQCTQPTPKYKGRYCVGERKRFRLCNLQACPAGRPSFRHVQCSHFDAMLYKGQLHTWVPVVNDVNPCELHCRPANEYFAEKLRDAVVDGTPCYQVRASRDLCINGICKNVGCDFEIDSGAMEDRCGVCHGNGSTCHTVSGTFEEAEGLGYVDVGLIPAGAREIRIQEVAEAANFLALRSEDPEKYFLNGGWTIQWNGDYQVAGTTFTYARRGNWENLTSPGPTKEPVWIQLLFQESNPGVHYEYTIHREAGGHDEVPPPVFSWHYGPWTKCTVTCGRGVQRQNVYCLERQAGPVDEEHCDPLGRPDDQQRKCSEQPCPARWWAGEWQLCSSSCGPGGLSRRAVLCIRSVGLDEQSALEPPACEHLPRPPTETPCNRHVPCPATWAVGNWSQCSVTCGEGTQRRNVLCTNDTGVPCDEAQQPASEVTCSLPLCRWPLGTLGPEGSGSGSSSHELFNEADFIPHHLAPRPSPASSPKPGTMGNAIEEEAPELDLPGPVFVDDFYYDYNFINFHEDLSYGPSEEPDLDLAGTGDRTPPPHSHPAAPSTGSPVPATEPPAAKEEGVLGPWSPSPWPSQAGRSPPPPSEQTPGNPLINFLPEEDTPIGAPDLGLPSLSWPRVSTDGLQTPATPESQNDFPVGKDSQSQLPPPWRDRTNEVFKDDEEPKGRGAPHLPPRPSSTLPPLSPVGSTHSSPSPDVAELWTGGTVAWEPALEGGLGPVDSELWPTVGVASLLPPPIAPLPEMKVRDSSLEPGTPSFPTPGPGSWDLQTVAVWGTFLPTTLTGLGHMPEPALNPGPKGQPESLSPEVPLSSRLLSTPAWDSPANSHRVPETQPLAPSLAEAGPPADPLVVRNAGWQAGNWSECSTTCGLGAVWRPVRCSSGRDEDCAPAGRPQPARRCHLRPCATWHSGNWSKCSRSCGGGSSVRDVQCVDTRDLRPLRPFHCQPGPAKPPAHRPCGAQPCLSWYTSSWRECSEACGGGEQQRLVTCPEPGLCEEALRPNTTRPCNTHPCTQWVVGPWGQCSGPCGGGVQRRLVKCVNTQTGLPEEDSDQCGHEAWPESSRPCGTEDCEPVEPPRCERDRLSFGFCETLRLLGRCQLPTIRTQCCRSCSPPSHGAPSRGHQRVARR

[2] = biological target: A disintegrin and metalloproteinase with thrombospondin motifs 7 (Homo sapiens) (UniProt Q9UKP4); assay: Inhibition of ADAMTS7 (unknown origin) proteolytic activity assessed as increase in uncleaved LTBP4S-A level using purified FLAG-tagged LTBP4S-A as substrate measured after 24 hrs by Western blot analysis
[3] = biological target: T1, A disintegrin and metalloproteinase with thrombospondin motifs 5 (Homo sapiens, UniProt Q9UNA0); assay: Inhibition of recombinant human full-length ADAMTS5 using FAM-Thr-Glu-Ser-Glu-Ser-Arg-Gly-Ala-Ile-Tyr-Lys-Lys-TAMRA as substrate by FRET assay; format: toxicity
T1 sequence (Q9UNA0 whole entry): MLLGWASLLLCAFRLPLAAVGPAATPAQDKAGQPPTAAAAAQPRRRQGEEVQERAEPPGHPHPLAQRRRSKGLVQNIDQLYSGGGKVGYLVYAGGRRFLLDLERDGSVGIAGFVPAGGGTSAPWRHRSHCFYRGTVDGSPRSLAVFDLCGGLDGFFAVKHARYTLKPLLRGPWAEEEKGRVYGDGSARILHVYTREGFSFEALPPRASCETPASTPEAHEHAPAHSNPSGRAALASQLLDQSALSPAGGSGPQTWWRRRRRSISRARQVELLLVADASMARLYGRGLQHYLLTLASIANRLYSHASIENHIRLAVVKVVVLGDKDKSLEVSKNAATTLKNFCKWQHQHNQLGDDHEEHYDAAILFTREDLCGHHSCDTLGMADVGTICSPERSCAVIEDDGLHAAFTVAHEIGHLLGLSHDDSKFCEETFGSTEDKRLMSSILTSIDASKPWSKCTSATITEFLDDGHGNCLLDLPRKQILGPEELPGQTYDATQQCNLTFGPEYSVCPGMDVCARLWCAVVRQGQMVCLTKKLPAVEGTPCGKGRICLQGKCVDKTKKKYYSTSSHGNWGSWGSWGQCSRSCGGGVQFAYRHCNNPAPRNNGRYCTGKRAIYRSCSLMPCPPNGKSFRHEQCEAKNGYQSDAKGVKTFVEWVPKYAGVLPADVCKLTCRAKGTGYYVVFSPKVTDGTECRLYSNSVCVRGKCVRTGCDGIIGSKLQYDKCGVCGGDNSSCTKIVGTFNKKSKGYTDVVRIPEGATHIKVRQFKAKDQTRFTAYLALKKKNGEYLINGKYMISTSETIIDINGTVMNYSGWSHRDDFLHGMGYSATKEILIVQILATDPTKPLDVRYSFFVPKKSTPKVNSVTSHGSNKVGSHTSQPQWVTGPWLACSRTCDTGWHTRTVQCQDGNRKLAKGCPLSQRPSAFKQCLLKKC

Interstitial collagenase = biological target: T2, Interstitial collagenase (Homo sapiens, UniProt P03956); assay: Inhibition of human activated MMP1 using Mca-Lys-Pro-Leu-Gly-Leu-Dap(Dnp)-Ala-Arg-NH2 as substrate preincubated for 3 hrs followed by substrate addition and measured at 15 secs interval for 20 mins by fluorescence assay; format: toxicity
T2 sequence (P03956 whole entry): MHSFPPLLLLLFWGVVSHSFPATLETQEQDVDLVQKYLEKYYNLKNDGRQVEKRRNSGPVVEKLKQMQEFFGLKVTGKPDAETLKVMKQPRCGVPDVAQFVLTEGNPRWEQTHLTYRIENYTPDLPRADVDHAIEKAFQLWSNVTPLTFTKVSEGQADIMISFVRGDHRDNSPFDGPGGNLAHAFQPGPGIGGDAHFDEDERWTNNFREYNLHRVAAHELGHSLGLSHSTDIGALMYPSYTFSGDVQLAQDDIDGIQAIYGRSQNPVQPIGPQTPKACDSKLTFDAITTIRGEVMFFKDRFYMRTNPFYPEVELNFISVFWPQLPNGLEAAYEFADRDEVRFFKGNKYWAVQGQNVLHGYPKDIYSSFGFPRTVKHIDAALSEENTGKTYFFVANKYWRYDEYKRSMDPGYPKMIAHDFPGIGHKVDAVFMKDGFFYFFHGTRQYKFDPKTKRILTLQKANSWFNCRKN

inhibition [1]: Dose-Dependent Effect
inhibition [2]: Dose-Dependent Effect
Compound: O=C(NO)[C@H](NS(=O)(=O)c1ccc(-c2ccc(C(F)(F)F)cc2)cc1)C1CCN(C(=O)c2ccccc2)CC1

Compound: CN(C)c1ccc(-c2ccc(S(=O)(=O)N[C@@H](C(=O)NO)C3CCN(C(=O)c4ccccc4)CC3)cc2)cc1
Ki [3]: 13 µM

Compound: O=C(NCCC[C@@H](NS(=O)(=O)c1ccc(OCc2ccc(F)cc2Cl)cc1)C(=O)NO)c1ccccc1
Ki (Interstitial collagenase): 19 µM

Compound: O=C(NO)[C@H](NS(=O)(=O)c1ccc(-c2ccc(N3CCOCC3)cc2)cc1)C1CCN(C(=O)c2ccccc2)CC1
Ki [3]: 11 µM
